Measured values from patent US12030878B2 (BRISTOL-MYERS SQUIBB COMPANY, priority 2017, dated 2024).

How the values were obtained:
Assay type in all cases: cell-based
human TLR9 = molecular target: T1, human TLR9 (Homo sapiens, UniProt Q9NR96); assay: TLR9 inhibition reporter assay (HEK-Blue SEAP); conditions: HEK-Blue cells overexpressing human TLR9, stimulated with ODN2006 5 nM, 22 hour incubation
T1 construct: host or cells: HEK-Blue cells
T1 sequence (Q9NR96 26-1032): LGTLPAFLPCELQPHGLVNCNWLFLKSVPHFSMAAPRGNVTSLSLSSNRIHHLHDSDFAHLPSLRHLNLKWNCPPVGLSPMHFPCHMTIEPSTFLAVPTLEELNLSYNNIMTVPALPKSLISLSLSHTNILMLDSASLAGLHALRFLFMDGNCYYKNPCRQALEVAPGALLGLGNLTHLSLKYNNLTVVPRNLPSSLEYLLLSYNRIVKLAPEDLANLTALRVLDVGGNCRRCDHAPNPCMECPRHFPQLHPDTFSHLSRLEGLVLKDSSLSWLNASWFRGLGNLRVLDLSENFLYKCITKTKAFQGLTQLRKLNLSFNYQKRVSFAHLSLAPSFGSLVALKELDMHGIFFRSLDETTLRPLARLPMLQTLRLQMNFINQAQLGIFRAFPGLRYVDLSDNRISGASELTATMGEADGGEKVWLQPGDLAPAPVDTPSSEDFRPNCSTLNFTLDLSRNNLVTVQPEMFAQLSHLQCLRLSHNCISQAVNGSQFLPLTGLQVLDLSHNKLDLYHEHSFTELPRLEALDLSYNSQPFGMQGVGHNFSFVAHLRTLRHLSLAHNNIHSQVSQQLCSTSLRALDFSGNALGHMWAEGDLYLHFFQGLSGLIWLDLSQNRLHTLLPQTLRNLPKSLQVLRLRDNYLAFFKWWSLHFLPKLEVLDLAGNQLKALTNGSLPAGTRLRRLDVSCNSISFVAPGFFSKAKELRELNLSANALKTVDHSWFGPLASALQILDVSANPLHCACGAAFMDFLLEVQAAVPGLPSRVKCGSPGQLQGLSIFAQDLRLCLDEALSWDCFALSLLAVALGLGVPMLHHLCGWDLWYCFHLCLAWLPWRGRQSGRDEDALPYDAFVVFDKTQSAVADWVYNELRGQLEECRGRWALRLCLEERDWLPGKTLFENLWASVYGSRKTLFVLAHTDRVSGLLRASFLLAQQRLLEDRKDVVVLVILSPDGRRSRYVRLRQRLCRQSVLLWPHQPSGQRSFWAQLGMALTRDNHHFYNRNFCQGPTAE
Procedure, shortened: (§1)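 SEAP read-out via HEK-Blue Detection medium after 22 h at 37 °C; percent inhibition relative to agonist-plus-DMSO and known-inhibitor wells. Agonists: TLR7 gardiquimod 7.5 μM, TLR8 R848 15.9 μM, TLR9 ODN2006 5 nM. Dose range 0.05 nM–50 μM, 30 min compound pre-treatment at RT.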

human TLR8 = molecular target: T2, human TLR8 (Homo sapiens, UniProt Q9NR97); assay: TLR8 inhibition reporter assay (HEK-Blue SEAP); conditions: HEK-Blue cells overexpressing human TLR8, stimulated with R848 15.9 μM, 22 hour incubation
T2 construct: host or cells: HEK-Blue cells
T2 sequence (Q9NR97 27-1041): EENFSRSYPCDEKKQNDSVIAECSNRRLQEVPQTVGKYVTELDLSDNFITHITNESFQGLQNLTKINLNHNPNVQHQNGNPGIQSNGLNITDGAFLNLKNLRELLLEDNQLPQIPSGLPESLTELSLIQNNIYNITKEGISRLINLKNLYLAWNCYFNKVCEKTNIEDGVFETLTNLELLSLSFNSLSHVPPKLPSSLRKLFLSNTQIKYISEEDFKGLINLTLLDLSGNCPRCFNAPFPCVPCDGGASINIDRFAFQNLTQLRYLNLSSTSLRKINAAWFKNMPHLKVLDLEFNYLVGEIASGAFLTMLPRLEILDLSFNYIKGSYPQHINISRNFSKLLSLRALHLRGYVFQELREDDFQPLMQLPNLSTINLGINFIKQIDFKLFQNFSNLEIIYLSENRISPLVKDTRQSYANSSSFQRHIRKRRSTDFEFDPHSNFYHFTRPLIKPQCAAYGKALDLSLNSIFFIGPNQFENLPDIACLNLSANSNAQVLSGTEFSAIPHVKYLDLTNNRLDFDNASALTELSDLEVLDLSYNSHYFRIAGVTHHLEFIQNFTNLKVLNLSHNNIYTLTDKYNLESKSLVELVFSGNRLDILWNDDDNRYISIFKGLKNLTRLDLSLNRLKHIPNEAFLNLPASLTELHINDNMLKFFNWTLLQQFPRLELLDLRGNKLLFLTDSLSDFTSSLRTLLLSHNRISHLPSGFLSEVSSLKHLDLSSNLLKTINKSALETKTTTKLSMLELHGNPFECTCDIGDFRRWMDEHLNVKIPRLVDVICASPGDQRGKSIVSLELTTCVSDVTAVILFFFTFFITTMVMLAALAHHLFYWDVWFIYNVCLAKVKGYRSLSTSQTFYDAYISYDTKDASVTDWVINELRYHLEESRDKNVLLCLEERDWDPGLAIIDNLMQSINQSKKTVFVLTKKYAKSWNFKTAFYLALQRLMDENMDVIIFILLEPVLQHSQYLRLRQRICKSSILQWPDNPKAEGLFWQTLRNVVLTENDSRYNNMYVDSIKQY
Procedure, shortened: as §1

human TLR7 = molecular target: T3, human TLR7 (Homo sapiens, UniProt Q9NYK1); assay: TLR7 inhibition reporter assay (HEK-Blue SEAP); conditions: HEK-Blue cells overexpressing human TLR7, stimulated with gardiquimod 7.5 μM, 22 hour incubation
T3 construct: host or cells: HEK-Blue cells
T3 sequence (Q9NYK1 27-1049): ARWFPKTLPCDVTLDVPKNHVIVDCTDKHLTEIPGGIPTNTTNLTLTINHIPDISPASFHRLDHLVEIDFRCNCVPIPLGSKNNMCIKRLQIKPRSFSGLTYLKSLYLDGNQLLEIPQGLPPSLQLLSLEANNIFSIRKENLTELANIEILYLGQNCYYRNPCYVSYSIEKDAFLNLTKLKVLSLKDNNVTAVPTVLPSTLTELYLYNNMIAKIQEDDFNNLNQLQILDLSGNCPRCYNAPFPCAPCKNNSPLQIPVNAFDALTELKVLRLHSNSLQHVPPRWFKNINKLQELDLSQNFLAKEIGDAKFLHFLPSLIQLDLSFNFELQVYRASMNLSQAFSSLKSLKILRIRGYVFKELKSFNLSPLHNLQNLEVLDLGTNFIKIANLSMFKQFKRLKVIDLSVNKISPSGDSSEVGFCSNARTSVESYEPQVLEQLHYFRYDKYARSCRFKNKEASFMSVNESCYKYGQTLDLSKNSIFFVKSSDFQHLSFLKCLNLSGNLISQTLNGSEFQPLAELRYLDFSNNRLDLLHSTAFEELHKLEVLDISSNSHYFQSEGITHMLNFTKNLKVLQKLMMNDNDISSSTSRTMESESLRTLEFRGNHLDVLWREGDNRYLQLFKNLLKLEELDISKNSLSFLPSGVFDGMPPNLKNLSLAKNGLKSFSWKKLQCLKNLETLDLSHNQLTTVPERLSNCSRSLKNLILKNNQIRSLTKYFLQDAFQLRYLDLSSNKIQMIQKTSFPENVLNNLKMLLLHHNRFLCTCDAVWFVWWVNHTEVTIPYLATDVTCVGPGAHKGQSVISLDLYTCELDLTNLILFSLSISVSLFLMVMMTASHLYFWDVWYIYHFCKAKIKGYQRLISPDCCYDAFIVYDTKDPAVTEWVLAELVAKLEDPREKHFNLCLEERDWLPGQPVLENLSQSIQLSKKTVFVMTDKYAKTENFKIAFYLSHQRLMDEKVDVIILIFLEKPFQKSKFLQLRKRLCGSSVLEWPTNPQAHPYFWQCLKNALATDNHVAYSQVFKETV
Procedure, shortened: as §1

SMILES | IC50 (human TLR9) [nM] | IC50 (human TLR8) [nM] | IC50 (human TLR7) [nM]
Cc1c(-c2[nH]c3ccc(OC4CCN(C5COC5)CC4)cc3c2C(C)C)cn2cnnc2c1C [Example 56, 6-(3-isopropyl-5-((1-(oxetan-3-yl)piperidin-4-yl)oxy)-1H-indol-2-yl)-7,8-dimethyl-[1,2,4]triazolo[4,3-a]pyridine] | 19300 | 19.4 | 26.3
Cc1c(-c2[nH]c3ccc(OC4CCN(C(=O)CN(C)C)CC4)cc3c2C(C)C)cn(C)c(=O)c1C [Example 104, 5-(5-((1-(dimethylglycyl)piperidin-4-yl)oxy)-3-isopropyl-1H-indol-2-yl)-1,3,4-trimethylpyridin-2(1H)-one] | 5110 | 16.2 | 7.8
Cc1cc(-c2[nH]c3ccc(OCc4ccncc4)cc3c2C(C)C)ccn1 [Example 174, 3-isopropyl-2-(2-methylpyridin-4-yl)-5-(pyridin-4-ylmethoxy)-1H-indole] | > 50000 | 3020 | 3590
CNC(=O)CN1CCC(COc2ccc3[nH]c(-c4cn(C)c(=O)c(C)c4C)c(C(C)C)c3c2)CC1 [Example 116, 2-(4-(((3-isopropyl-2-(1,4,5-trimethyl-6-oxo-1,6-dihydropyridin-3-yl)-1H-indol-5-yl)oxy)methyl)piperidin-1-yl)-N-methylacetamide] | 17000 | 5.3 | 16.1
Cc1cc(-c2[nH]c3ccc(OC4CCCN(CC(=O)N(C)C)C4)cc3c2C(C)C)cn(C)c1=O (stereo not drawn) [Example 84, 2-(3-((2-(1,5-dimethyl-6-oxo-1,6-dihydropyridin-3-yl)-3-isopropyl-1H-indol-5-yl)oxy)piperidin-1-yl)-N,N-dimethylacetamide] | 16900 | 2.9 | 6.5
Cc1cc(-c2[nH]c3ccc(OCC(=O)NCCC(C)(C)O)cc3c2C(C)C)ccn1 [Example 155, N-(3-hydroxy-3-methylbutyl)-2-((3-isopropyl-2-(2-methylpyridin-4-yl)-1H-indol-5-yl)oxy)acetamide] | > 50000 | 731 | 778

These reach a lower IC50 (human TLR9). Values come first.

IC50 (human TLR9) [nM] | IC50 (human TLR8) [nM] | IC50 (human TLR7) [nM] | SMILES
1010 | 113 | 328 | COc1ccc(-c2[nH]c3ccc(OCC(=O)N4CCCC(CCN)C4)cc3c2C(C)C)cc1OC (stereo not drawn) [Example 122, 1-(3-(2-aminoethyl)piperidin-1-yl)-2-((2-(3,4-dimethoxyphenyl)-3-isopropyl-1H-indol-5-yl)oxy)ethan-1-one]
492 | 7.3 | 9.6 | CNC(=O)CN1CCC(COc2ccc3[nH]c(-c4cc(C)nc(C)c4)c(C(C)C)c3c2)CC1 [Example 110, 2-(4-(((2-(2,6-dimethylpyridin-4-yl)-3-isopropyl-1H-indol-5-yl)oxy)methyl)piperidin-1-yl)-N-methylacetamide]
518 | 1.1 | 3.6 | Cc1cc(-c2[nH]c3ccc(OC4CCN(CC(C)(C)O)CC4)cc3c2C(C)C)cc(C)n1 [Example 21, 1-(4-((2-(2,6-dimethylpyridin-4-yl)-3-isopropyl-1H-indol-5-yl)oxy)piperidin-1-yl)-2-methylpropan-2-ol]
1100 | 3 | 0.3 | Cc1cc(-c2[nH]c3ccc(OCC4CCNCC4)cc3c2C(C)C)cn2ncnc12 [Example 12, 6-(3-isopropyl-5-(piperidin-4-ylmethoxy)-1H-indol-2-yl)-8-methyl-[1,2,4] triazolo[1,5-a]pyridine]
2990 | 22.6 | 50.2 | Cc1cc(-c2[nH]c3ccc(OC4CCC(OC5CCNCC5)CC4)cc3c2C(C)C)ccn1 (stereo not drawn) [Example 185, 3-isopropyl-2-(2-methylpyridin-4-yl)-5-((4-(piperidin-4-yloxy)cyclohexyl)oxy)-1H-indole]
218 | 4.2 | 22 | CCc1c(-c2ccnc(C)c2)[nH]c2ccc(OCC3CCNCC3)cc12 [Example 161, 3-ethyl-2-(2-methylpyridin-4-yl)-5-(piperidin-4-ylmethoxy)-1H-indole]
1040 | 1.5 | 9.6 | Cc1cc(-c2[nH]c3ccc(OC4CCN(CCO)CC4)cc3c2C(C)C)cc(C)n1 [Example 70, 2-(4-((2-(2,6-dimethylpyridin-4-yl)-3-isopropyl-1H-indol-5-yl)oxy)piperidin-1-yl) ethan-1-ol]
576 | 54.2 | 62.1 | COc1ccc(-c2[nH]c3ccc(OCC(=O)NC4CCCC(N)C4)cc3c2C(C)C)cc1OC (stereo not drawn) [Example 128, N-(3-aminocyclohexyl)-2-((2-(3,4-dimethoxyphenyl)-3-isopropyl-1H-indol-5-yl)oxy) acetamide]
406 | 4.4 | 1.8 | Cc1cc(-c2[nH]c3ccc(OCC4CCNCC4)cc3c2C(C)C)cc(C)n1 [Example 6, 2-(2,6-dimethylpyridin-4-yl)-3-isopropyl-5-(piperidin-4-ylmethoxy)-1H-indole]
